Read-outs that look alike come from different tables or passages of the source.
What was measured:
[1] = biological target: T1, AR1-651 (Homo sapiens, UniProt P10275); assay: MMTV-luc dual luciferase reporter assay, AR1-651-induced activity in 22RV1 cells; format: cell-based; conditions: for MMTV-luc Activity (%), AR1-651-induced: 22RV1, AR1-651 +, 12 h;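 as to all read-outs here: luminometric read-out of firefly luciferase signal normalized to Renilla luciferase signal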
T1 construct: FLAG; expressed in transfected cells; host or cells: 22RV1
T1 sequence (P10275 1-651): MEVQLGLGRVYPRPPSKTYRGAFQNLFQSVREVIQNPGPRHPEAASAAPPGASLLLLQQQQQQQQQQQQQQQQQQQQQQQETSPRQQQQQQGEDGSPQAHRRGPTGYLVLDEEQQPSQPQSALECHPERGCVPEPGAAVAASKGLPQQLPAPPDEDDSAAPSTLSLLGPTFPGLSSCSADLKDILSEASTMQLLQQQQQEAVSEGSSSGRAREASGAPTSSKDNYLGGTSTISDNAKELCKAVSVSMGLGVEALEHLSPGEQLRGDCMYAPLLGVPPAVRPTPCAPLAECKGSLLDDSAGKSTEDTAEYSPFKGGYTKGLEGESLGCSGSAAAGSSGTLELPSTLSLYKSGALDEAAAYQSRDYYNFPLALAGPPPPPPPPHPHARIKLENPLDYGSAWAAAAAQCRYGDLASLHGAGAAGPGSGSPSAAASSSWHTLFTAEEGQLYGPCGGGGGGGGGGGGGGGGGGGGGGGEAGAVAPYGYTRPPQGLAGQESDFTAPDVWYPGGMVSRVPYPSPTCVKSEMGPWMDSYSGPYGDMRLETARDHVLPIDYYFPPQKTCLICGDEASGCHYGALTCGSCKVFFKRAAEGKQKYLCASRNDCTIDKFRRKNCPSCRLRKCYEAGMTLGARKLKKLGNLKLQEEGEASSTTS
Experimental: (§1) Renilla and firefly activities were then determined by luminometry using the Dual-Luciferase Reporter Assay System (Promega) and the ratio calculated. Results were expressed as the ratio of firefly to Renilla luciferase activity.

[2] = biological target: AR-FL (Homo sapiens, UniProt P10275); assay: MMTV-luc dual luciferase reporter assay, DHT-induced AR activity in 22RV1 cells; format: cell-based; conditions: 22RV1, DHT +, compound 10 µM, 12 h, mean ± s.d., n=3
Experimental: as §1
After transient transfection of MMTV-luc and Renilla-luc in 22RV1, the MMTV-luc
activities were stimulated by androgen DHT. Then cells were treated with indicated
expressed as the ratio of luciferase activity. Values are presented as mean ± s.d., n =

[3] = 22Rv1, read-out: MMTV-luc Activity (%), AR1-651-induced, 22RV1, AR1-651 +, compound 10 µM, 12 h, mean ± s.d., n=3
[4] = compound 10 µM, mean ± s.d., n=3
[5] = 22Rv1, read-out: MMTV-luc Activity (%), AR1-651-induced, 22RV1, AR1-651 +, compound 1 µM, 12 h
[6] = 22Rv1, read-out: MMTV-luc Activity (%), AR1-651-induced

Chain of AR-FL (P10275 whole entry): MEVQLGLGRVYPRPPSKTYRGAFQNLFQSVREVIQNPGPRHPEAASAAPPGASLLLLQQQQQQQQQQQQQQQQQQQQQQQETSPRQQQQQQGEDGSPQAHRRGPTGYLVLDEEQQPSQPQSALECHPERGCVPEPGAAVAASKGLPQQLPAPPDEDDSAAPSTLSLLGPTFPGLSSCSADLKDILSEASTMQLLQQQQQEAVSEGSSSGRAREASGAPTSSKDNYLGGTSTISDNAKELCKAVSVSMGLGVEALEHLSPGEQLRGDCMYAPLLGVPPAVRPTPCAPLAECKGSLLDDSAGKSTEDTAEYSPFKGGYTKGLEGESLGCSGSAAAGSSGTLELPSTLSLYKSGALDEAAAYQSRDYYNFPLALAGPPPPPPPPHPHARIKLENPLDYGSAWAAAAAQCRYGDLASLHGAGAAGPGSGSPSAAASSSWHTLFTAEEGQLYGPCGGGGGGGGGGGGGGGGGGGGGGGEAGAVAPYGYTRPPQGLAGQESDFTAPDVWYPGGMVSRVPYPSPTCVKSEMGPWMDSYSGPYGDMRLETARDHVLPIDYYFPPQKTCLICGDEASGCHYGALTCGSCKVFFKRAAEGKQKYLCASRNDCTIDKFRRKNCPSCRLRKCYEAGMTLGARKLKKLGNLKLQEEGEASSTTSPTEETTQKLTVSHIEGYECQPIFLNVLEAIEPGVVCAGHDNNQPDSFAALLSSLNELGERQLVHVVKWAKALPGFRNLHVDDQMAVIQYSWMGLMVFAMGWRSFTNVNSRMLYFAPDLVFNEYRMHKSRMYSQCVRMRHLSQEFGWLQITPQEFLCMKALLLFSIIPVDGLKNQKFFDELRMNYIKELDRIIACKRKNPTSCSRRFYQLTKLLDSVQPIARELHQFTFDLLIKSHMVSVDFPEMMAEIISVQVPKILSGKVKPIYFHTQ

Row | Compound | activity at 10 µM [1, 3] [%] | MMTV-luc Activity (%), AR1-651-induced [1, 4] [%] | also measured
1 | O=c1c(-c2ccc(O)cc2)coc2c([C@@H]3O[C@H](CO)[C@@H](O)[C@H](O)[C@H]3O)c(O)ccc12 [Puerarin] | 80.1 ± 1.8 | – | –
2 | CN1CCc2cc3c(cc2[C@H]1[C@@H]1OC(=O)c2c1ccc1c2OCO1)OCO3 [d-Bicuculline] | – | 112.1 | MMTV-luc Activity (%), DHT-induced [2]: 75.0±11.5%
3 | astragalosideⅠ | – | 87.0±5.2 | MMTV-luc Activity (%), DHT-induced [2]: 117.8±5.2%
4 | CC1(C)[C@@H](O)CC[C@]2(C)[C@H]3C(=O)C=C4[C@@H]5C[C@@](C)(C(=O)O)CC[C@]5(C)CC[C@@]4(C)[C@]3(C)CC[C@@H]12 [glycyrrhetic acid] | – | 308.3 | MMTV-luc Activity (%), DHT-induced [2]: 101.3±11.9%
5 | O=Cc1ccc(O)c(O)c1 [Protocatechuic aldehyde] | – | 62.5 | MMTV-luc Activity (%), DHT-induced [2]: 83.1±0.1%
6 | O=c1c(O[C@@H]2O[C@H](CO)[C@@H](O)[C@H](O)[C@H]2O)c(-c2ccc(O)c(O)c2)oc2cc(O)cc(O)c12 [Isoquercitrin] | 95.5 | – | –
7 | O[C@H]1[C@H]2c3cc4c(cc3CN3CCC(=C[C@@H]1O)[C@H]23)OCO4 [Lycorine] | – | – | activity at 10 µM [1, 6]: 66%
8 | CC(C)=CCC[C@](C)(O[C@@H]1O[C@H](CO)[C@@H](O)[C@H](O)[C@H]1O)[C@H]1CC[C@]2(C)[C@@H]1[C@H](O)C[C@@H]1[C@@]3(C)CC[C@H](O)C(C)(C)[C@@H]3[C@@H](O[C@@H]3O[C@H](CO)[C@@H](O)[C@H](O)[C@H]3O)C[C@]12C [Ginsenoside Rg1] | 77.2 | – | –
9 | CC1=CC(=O)c2c(O)cccc2C1=O [Plumbagin] | 28.8 ± 7.9 | – | activity at 1 µM [1, 5]: 128%
10 | O=C1C=CC2(CCC23C=CC(=O)O3)O1 (centres unmarked) [Anemonin] | 112 | – | –
11 | C=C[C@H]1[C@H](O[C@@H]2O[C@H](CO)[C@@H](O)[C@H](O)[C@H]2O)OC=C2C(=O)OCC[C@]21O [Swertiamain] | – | 64.7±7.5 | MMTV-luc Activity (%), DHT-induced [2]: 80.9±8.5%
12 | CC(C)(c1ccc(OCC(O)CO)cc1)c1ccc(OCC(O)CCl)cc1 (stereo not drawn) [EPI-001, reference compound] | – | – | MMTV-luc Activity (%), AR1-651-induced ([1]; compound 25 µM): 54.2%
13 | CC(C)[C@@H](C)/C=C/[C@@H](C)[C@H]1CC[C@H]2C3=CC=C4C[C@@H](O)CC[C@]4(C)[C@H]3CC[C@]12C [Ergosterol] | 96.3 ± 6.1 | – | –
14 | CC1(C)CC[C@]2(C(=O)O)CC[C@]3(C)C(=CC[C@@H]4[C@@]5(C)CC[C@H](O)C(C)(C)[C@@H]5CC[C@]43C)[C@@H]2C1 [Oleanic acid] | – | 153.4 | MMTV-luc Activity (%), DHT-induced [2]: 122.4±7.5%
15 | O=C(/C=C/c1ccc(O)c2c1[C@H](C(=O)O[C@H](Cc1ccc(O)c(O)c1)C(=O)O)[C@@H](c1ccc(O)c(O)c1)O2)O[C@H](Cc1ccc(O)c(O)c1)C(=O)O [lithospermic acid B] | – | 96.3±4.2 | MMTV-luc Activity (%), DHT-induced [2]: 115.9±27.9%
16 | O=C([O-])C(O)Cc1ccc(O)c(O)c1.[Na+] (centres unmarked) [Sodium Danshensu] | – | 73.3 | MMTV-luc Activity (%), DHT-induced [2]: 93.0±14.7%
17 | C=CCc1ccc(O)c(-c2cc(CC=C)ccc2O)c1 [Magnolol] | – | – | activity at 1 µM [1, 6]: 60.6%; activity at 10 µM [1, 6]: 59.3%
18 | Cc1cc(O)c(C(=O)CCC(C)C)c(=O)o1 [Pogostone] | – | 157.2 | MMTV-luc Activity (%), DHT-induced [2]: 92.3±13.3%
19 | Myricitrin | – | 102.1 | –
20 | OCc1ccc(O[C@@H]2O[C@H](CO)[C@@H](O)[C@H](O)[C@H]2O)cc1 [Gastrodin] | – | – | activity at 10 µM [1, 6]: 70 ± 3.7%
21 | D-Tanshinone I | – | 138.3 | –
22 | O=C1CCC[C@@H]2[C@H]3CCC[N@+]4([O-])CCC[C@@H](CN12)[C@@H]34 [Ammothamnine] | – | 105.7 | MMTV-luc Activity (%), DHT-induced [2]: 119.1±20.9%
23 | CC(C)(C)[C@]1(O)CC2OC(=O)CC23C(=O)OC2OC(=O)[C@H](O)C231 (some centres unmarked) [Bilobalide] | – | – | activity at 10 µM [1, 6]: 98.7 ± 1.1%
24 | Asiaticoside | – | 150.9 | –
25 | COc1cc(-c2oc3cc(O)cc(O)c3c(=O)c2O)ccc1O [Isorhamnetin] | – | – | activity at 10 µM [1, 6]: 139%
26 | C[C@@]12C[C@@]3(O)O[C@@H](O1)[C@]1(COC(=O)c4ccccc4)[C@H]3C[C@@]12O[C@@H]1O[C@H](CO)[C@@H](O)[C@H](O)[C@H]1O [Paeoniflorin] | 88.5 | – | –
27 | O=C1c2c(O)cc(O)cc2O[C@H](c2cc(O)c(O)c(O)c2)[C@H]1O [Dihydromyricetin] | 89.8 ± 8 | – | –
28 | COc1ccc([C@@H]2CC(=O)c3c(O)cc(O[C@@H]4O[C@H](CO[C@@H]5O[C@@H](C)[C@H](O)[C@@H](O)[C@H]5O)[C@@H](O)[C@H](O)[C@H]4O)cc3O2)cc1O [Hesperidin] | – | 110.2±13 | MMTV-luc Activity (%), DHT-induced [2]: 85.5±23.9%
29 | C=C1C[C@@]2(O)O[C@@]3(C[C@H]2C(C)C)[C@@H](C)CC[C@@H]13 [Curcumol] | – | 43.7 | MMTV-luc Activity (%), DHT-induced [2]: 90.0±9.2%; MMTV-luc Activity (%), AR1-651-induced ([1]; compound 1 µM): 86.4±7.7%

The next lines start with results.

Row | activity at 10 µM [1, 3] [%] | Compound | MMTV-luc Activity (%), AR1-651-induced [1, 4] [%] | also measured
30 | 113 | O=C(O)[C@H]1O[C@@H](Oc2cc3oc(-c4ccccc4)cc(=O)c3c(O)c2O)[C@H](O)[C@@H](O)[C@@H]1O [Baicalin] | – | –
31 | 52.9 | O=C(CCc1ccc(O)cc1)c1c(O)cc(O)cc1O[C@@H]1O[C@H](CO)[C@@H](O)[C@H](O)[C@H]1O [Phlorizin] | – | activity at 1 µM [1, 5]: 126%
32 | 115 | O=C(/C=C/c1ccc(O)c(O)c1)O[C@H](Cc1ccc(O)c(O)c1)C(=O)O [Rosmarinic acid] | – | –
33 | 59.5 | C=C1CC[C@@H]2[C@](C)(CO)[C@H](O)CC[C@@]2(C)[C@@H]1C/C=C1/C(=O)OC[C@H]1O [Andrographolide] | – | activity at 1 µM [1, 5]: 70%
34 | 105 | Cc1coc2c1C(=O)C(=O)c1c-2ccc2c1CCCC2(C)C [Tanshinone IIA] | – | –
35 | 61.9 | CCNC(=O)CC[C@H](N)C(=O)O [L-Theanine] | – | –
36 | 148 | C[C@@H]1CC[C@@]2(OC1)O[C@H]1C[C@H]3[C@@H]4CC=C5C[C@@H](O)CC[C@]5(C)[C@H]4CC[C@]3(C)[C@H]1[C@@H]2C [Diosgenin] | – | –
37 | 90 ± 5.4 | COc1cc(/C=C/c2ccc(O)cc2)cc(OC)c1 [Pterostilbene] | – | –
38 | 65.2 | C=C(C)[C@@H]1CC[C@]2(C(=O)O)CC[C@]3(C)[C@H](CC[C@@H]4[C@@]5(C)CC[C@H](O)C(C)(C)[C@@H]5CC[C@]43C)[C@@H]12 [Betulinic acid] | – | –
39 | 91.4 | C[C@@H]1O[C@@H](OC[C@H]2O[C@@H](Oc3c(-c4ccc(O)c(O)c4)oc4cc(O)cc(O)c4c3=O)[C@H](O)[C@@H](O)[C@@H]2O)[C@H](O)[C@H](O)[C@H]1O [Rutin] | – | –
40 | 157 | O=c1c(-c2ccc(O)cc2)coc2cc(O)cc(O)c12 [Genistein] | – | –
41 | 99.9 ± 4.1 | Cc1coc2c1C(=O)C(=O)c1c-2ccc2c(C)cccc12 [Tanshinone I] | – | –
42 | 177 | O=c1c(-c2ccc(O)cc2)coc2cc(O)ccc12 [Daidzein] | – | –
43 | 82.7 ± 4.5 | O=c1cc(-c2ccc(O)c(O)c2)oc2cc(O)cc(O)c12 [Luteolin] | – | –
44 | 104 | O=C(O)C1=C[C@@H](O)[C@@H](O)[C@H](O)C1 [shikimic acid] | – | –
45 | 178 | COc1cc(/C=C/C(=O)CC(=O)/C=C/c2ccc(O)c(OC)c2)ccc1O [Curcumin] | – | –
